Test results as given in US10125139B2, “Pesticidally active polycyclic derivatives with sulfur substituted five-membered ring heterocycles” (Syngenta Participations AG, priority 2015, dated 2018).

Assays:
Assay type in all cases: in vivo
[1] = tested on: Diabrotica balteata (Corn Root Worm); test: Example B2: Diabrotica balteata, sprayed maize sprouts, L2 larvae; conditions: Diabrotica balteata, 96 h; application rate of 200 ppm; 4 days after infestation; L2 larvae; read-out: effect in at least one of the two categories (mortality or growth inhibition)
Experimental: Example B2: Diabrotica balteata (Corn Root Worm)
Maize sprouts placed onto an agar layer in 24-well microtiter plates were treated with aqueous test solutions prepared from 10,000 ppm DMSO stock solutions by spraying. After drying, the plates were infested with L2 larvae (6 to 10 per well). The samples were assessed for mortality and growth inhibition in comparison to untreated samples 4 days after infestation. The following compounds gave an effect of at least 80% in at least one of the two categories (mortality or growth inhibition) at an application rate of 200 ppm:
(§1) Insecticidal action against Diabrotica balteata (Corn root worm), Plutella xylostella (Diamond black moth), and Spodoptera littoralis (Egyptian cotton leaf worm). The tests were carried out as described in biological examples B2, B8 and B9, respectively, with the larval feeding/contact activity (mortality only) being reported as Breakpoint (BP80) values in parts per million (i.e. the lowest concentration which gives 80% larval mortality).

[2] = tested on: Euschistus heros (Neotropical Brown Stink Bug); test: Example B3: Euschistus heros, sprayed soybean leaves, N2 nymphs; conditions: 120 h, application rate of 200 ppm, 5 days after infestation, read-out: effect in at least one of the two categories (mortality or growth inhibition)
Experimental: Example B3: Euschistus heros (Neotropical Brown Stink Bug)
Soybean leaves on agar in 24-well microtiter plates were sprayed with aqueous test solutions prepared from 10,000 ppm DMSO stock solutions. After drying the leaves were infested with N2 nymphs. The samples were assessed for mortality and growth inhibition in comparison to untreated samples 5 days after infestation. The following compounds gave an effect of at least 80% in at least one of the two categories (mortality or growth inhibition) at an application rate of 200 ppm: […]

[3] = tested on: Myzus persicae (Green Peach Aphid); test: Example B5: Myzus persicae feeding/contact activity, sunflower leaf discs; conditions: foliar, 144 h, application rate of 200 ppm, 6 days after infestation
Experimental: Example B5: Myzus persicae (Green Peach Aphid): Feeding/Contact Activity
Sunflower leaf discs were placed onto agar in a 24-well microtiter plate and sprayed with aqueous test solutions prepared from 10,000 ppm DMSO stock solutions. After drying, the leaf discs were infested with an aphid population of mixed ages. The samples were assessed for mortality 6 days after infestation.

[4] = tested on: Myzus persicae (Green Peach Aphid); test: Example B7: Myzus persicae intrinsic activity, sucrose solution through Parafilm; conditions: 120 h, test rate of 12 ppm, 5 days after infestation
Excerpt: Example B7: Myzus persicae (Green Peach Aphid). Intrinsic Activity
Test compounds prepared from 10,000 ppm DMSO stock solutions were applied by pipette into 24-well microtiter plates and mixed with sucrose solution. The plates were closed with a stretched Parafilm. A plastic stencil with 24 holes was placed onto the plate and infested pea seedlings were placed directly on the Parafilm. The infested plate was closed with a gel blotting paper and another plastic stencil and then turned upside down. The samples were assessed for mortality 5 days after infestation.

[5] = tested on: Plutella xylostella (Diamond Back Moth); test: Example B8: Plutella xylostella, artificial diet, L2 larvae; conditions: Plutella xylostella, 120 h; application rate of 200 ppm; 5 days after infestation; L2 larvae; read-out: effect in at least one of the two categories (mortality or growth inhibition)
Experimental: Example B8: Plutella xylostella (Diamond Back Moth)
24-well microtiter plates with artificial diet were treated with aqueous test solutions prepared from 10,000 ppm DMSO stock solutions by pipetting. After drying, the plates were infested with L2 larvae (10 to 15 per well). The samples were assessed for mortality and growth inhibition in comparison to untreated samples 5 days after infestation. The following compounds gave an effect of at least 80% in at least one of the two categories (mortality or growth inhibition) at an application rate of 200 ppm:
as §1

[6] = tested on: Spodoptera littoralis (Egyptian Cotton Leaf Worm); test: Example B10: Spodoptera littoralis systemic activity, lettuce grown on treated agar; conditions: 144 h, test rate of 12.5 ppm, 6 days after infestation, read-out: effect in at least one of the three categories (mortality, anti-feeding, or growth inhibition)
Excerpt: Example B10: Spodoptera littoralis (Egyptian Cotton Leaf Worm) Systemic Activity
Test compounds were applied by pipette from 10,000 ppm DMSO stock solutions into 24-well plates and mixed with agar. Lettuce seeds were placed onto the agar and the multi well plate was closed by another plate which contained also agar. After 7 days the compound was absorbed by the roots and the lettuce grew into the lid plate. The lettuce leaves were then cut off into the lid plate. Spodoptera eggs were pipetted through a plastic stencil onto a humid gel blotting paper and the lid plate was closed with it. The samples were assessed for mortality, anti-feedant effect and growth inhibition in comparison to untreated samples 6 days after infestation. The following compounds gave an effect of at least 80% in at least one of the three categories (mortality, anti-feeding, or growth inhibition) at a test rate of 12.5 ppm: […]

[7] = tested on: Bemisia tabaci (Cotton White Fly); test: Example B1: Bemisia tabaci feeding/contact activity, cotton leaf discs; conditions: foliar, 144 h, application rate of 200 ppm, 6 days after incubation, adult white flies
Experimental: Example B1: Bemisia tabaci (Cotton White Fly): Feeding/Contact Activity
Cotton leaf discs were placed on agar in 24-well microtiter plates and sprayed with aqueous test solutions prepared from 10,000 ppm DMSO stock solutions. After drying the leaf discs were infested with adult white flies. The samples were checked for mortality 6 days after incubation.

[8] = tested on: Frankliniella occidentalis (Western Flower thrips); test: Example B4: Frankliniella occidentalis feeding/contact activity, sunflower leaf discs; conditions: foliar, 168 h, application rate of 200 ppm, 7 days after infestation, population of mixed ages
Experimental: Example B4: Frankliniella occidentalis (Western Flower thrips): Feeding/Contact Activity
Sunflower leaf discs were placed on agar in 24-well microtiter plates and sprayed with aqueous test solutions prepared from 10,000 DMSO stock solutions. After drying the leaf discs were infested with a Frankliniella population of mixed ages. The samples were assessed for mortality 7 days after infestation.

[9] = tested on: Spodoptera littoralis (Egyptian Cotton Leaf Worm); test: Example B9: Spodoptera littoralis, cotton leaf discs, L1 larvae; conditions: Spodoptera littoralis, foliar, 72 h; application rate of 200 ppm; 3 days after infestation; L1 larvae
Experimental: Example B9: Spodoptera littoralis (Egyptian Cotton Leaf Worm)
Cotton leaf discs were placed onto agar in 24-well microtiter plates and sprayed with aqueous test solutions prepared from 10,000 ppm DMSO stock solutions. After drying the leaf discs were infested with five L1 larvae. The samples were assessed for mortality, anti-feeding effect, and growth inhibition in comparison to untreated samples 3 days after infestation. Control of Spodoptera littoralis by a test sample is given when at least one of the categories mortality, anti-feedant effect, and growth inhibition is higher than the untreated sample.
as §1

[10] = tested on: Thrips tabaci (Onion thrips); test: Example B12: Thrips tabaci feeding/contact activity, sunflower leaf discs; conditions: foliar, 144 h, application rate of 200 ppm, 6 days after infestation
Experimental: Example B12: Thrips tabaci (Onion thrips) Feeding/Contact Activity
Sunflower leaf discs were placed on agar in 24-well microtiter plates and sprayed with aqueous test solutions prepared from 10,000 ppm DMSO stock solutions. After drying the leaf discs were infested with a thrips population of mixed ages. The samples were assessed for mortality 6 days after infestation.

[11] = tested on: Myzus persicae (Green Peach Aphid); test: Example B6: Myzus persicae systemic activity, pea seedling roots in test solution; conditions: 144 h, test rate of 24 ppm, 6 days after placing seedlings into test solutions
Experimental: Example B6: Myzus persicae (Green Peach Aphid). Systemic Activity
Roots of pea seedlings infested with an aphid population of mixed ages were placed directly into aqueous test solutions prepared from 10,000 DMSO stock solutions. The samples were assessed for mortality 6 days after placing seedlings into test solutions.

CCSc1cc(I)sc1-c1nc2cc(SC(F)(F)F)ncc2n1C [Example I-7, 2-(3-ethylsulfanyl-5-iodo-2-thienyl)-3-methyl-6-(trifluoromethylsulfanyl)imidazo[4,5-c]pyridine]
≥ 80%: percent effect (mortality or growth inhibition) at 200 ppm [1] | percent effect (mortality or growth inhibition) at 200 ppm [2] | mortality at 200 ppm [3] | mortality at 12 ppm [4] | percent effect (mortality or growth inhibition) at 200 ppm [5] | percent effect (mortality, anti-feeding or growth inhibition) at 12.5 ppm [6]

CCS(=O)(=O)c1cc(-c2ccc(Cl)cc2)sc1-c1nc2cc(C(F)(F)F)ncc2n1C [Example P-5, 2-[5-(4-chlorophenyl)-3-ethylsulfonyl-2-thienyl]-3-methyl-6-(trifluoromethyl)imidazo[4,5-c]pyridine]
≥ 80%: mortality at 200 ppm [7] | percent effect (mortality or growth inhibition) at 200 ppm [1] | percent effect (mortality or growth inhibition) at 200 ppm [2] | mortality at 200 ppm [8] | mortality at 200 ppm [3] | percent effect (mortality or growth inhibition) at 200 ppm [5] | percent control (mortality, anti-feedant effect or growth inhibition) at 200 ppm [9] | percent effect (mortality, anti-feeding or growth inhibition) at 12.5 ppm [6] | mortality at 200 ppm [10]

CCS(=O)(=O)c1nc(-c2ncccn2)sc1-c1nc2cc(C(F)(F)F)ncc2n1C [Example P-9, 4-ethylsulfonyl-5-[3-methyl-6-(trifluoromethyl)imidazo[4,5-c]pyridin-2-yl]-2-pyrimidin-2-yl-thiazole]
≥ 80%: mortality at 24 ppm [11]

CCS(=O)(=O)c1nc(-n2ccc(C(F)(F)F)n2)sc1-c1nc2cc(C(F)(F)F)ncc2n1C [Example P-10, 4-ethylsulfonyl-5-[3-methyl-6-(trifluoromethyl)imidazo[4,5-c]pyridin-2-yl]-2-[3-(trifluoromethyl)pyrazol-1-yl]thiazole]
≥ 80%: mortality at 200 ppm [7] | percent effect (mortality or growth inhibition) at 200 ppm [1] | percent effect (mortality or growth inhibition) at 200 ppm [2] | mortality at 200 ppm [8] | mortality at 200 ppm [3] | percent control (mortality, anti-feedant effect or growth inhibition) at 200 ppm [9] | percent effect (mortality, anti-feeding or growth inhibition) at 12.5 ppm [6] | mortality at 200 ppm [10]

CCS(=O)(=O)c1nc(C2CC2)sc1-c1nc2cc(C(F)(F)F)ncc2n1C [Example P-13, 2-cyclopropyl-4-ethylsulfonyl-5-[3-methyl-6-(trifluoromethyl)imidazo[4,5-c]pyridin-2-yl]thiazole]
≥ 80%: percent effect (mortality or growth inhibition) at 200 ppm [1] | mortality at 200 ppm [3] | mortality at 24 ppm [11] | percent effect (mortality or growth inhibition) at 200 ppm [5] | percent control (mortality, anti-feedant effect or growth inhibition) at 200 ppm [9] | percent effect (mortality, anti-feeding or growth inhibition) at 12.5 ppm [6]

CCSc1nc(C2CC2)sc1-c1nc2cc(C(F)(F)F)ncc2n1C [Example P-14, 2-cyclopropyl-4-ethylsulfanyl-5-[3-methyl-6-(trifluoromethyl)imidazo[4,5-c]pyridin-2-yl]thiazole]
≥ 80%: mortality at 200 ppm [7] | percent effect (mortality or growth inhibition) at 200 ppm [1] | mortality at 200 ppm [3] | mortality at 12 ppm [4] | percent effect (mortality or growth inhibition) at 200 ppm [5] | percent control (mortality, anti-feedant effect or growth inhibition) at 200 ppm [9]

CCS(=O)(=O)c1cc(-c2ccc(Cl)cc2)sc1-c1nc2cc(SC(F)(F)F)ncc2n1C [Example P-15]
≥ 80%: mortality at 200 ppm [7] | percent effect (mortality or growth inhibition) at 200 ppm [1] | percent effect (mortality or growth inhibition) at 200 ppm [2] | mortality at 200 ppm [8] | mortality at 200 ppm [3] | percent effect (mortality or growth inhibition) at 200 ppm [5] | percent control (mortality, anti-feedant effect or growth inhibition) at 200 ppm [9] | percent effect (mortality, anti-feeding or growth inhibition) at 12.5 ppm [6] | mortality at 200 ppm [10]

CCS(=O)(=O)c1cc(-c2ccc(Cl)cc2)sc1-c1nc2cc(C(F)(F)F)nnc2n1C [Example P-18, 6-[5-(4-chlorophenyl)-3-ethylsulfonyl-2-thienyl]-7-methyl-3-(trifluoromethyl)imidazo[4,5-c]pyridazine]
≥ 80%: mortality at 200 ppm [7] | percent effect (mortality or growth inhibition) at 200 ppm [1] | percent effect (mortality or growth inhibition) at 200 ppm [2] | mortality at 200 ppm [8] | mortality at 200 ppm [3] | percent effect (mortality or growth inhibition) at 200 ppm [5] | percent control (mortality, anti-feedant effect or growth inhibition) at 200 ppm [9] | percent effect (mortality, anti-feeding or growth inhibition) at 12.5 ppm [6] | mortality at 200 ppm [10]
